Among the data in US8476298B2 (Exelixis, Inc., priority 2003, dated 2013) are IC50 values, retold here.

The target in one assay is c-Kit kinase (Homo sapiens, UniProt P10721). The assay is described as follows: c-Kit AlphaScreen kinase assay.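 Note: c-Kit kinase phosphorylating biotinylated poly(Glu,Tyr), ATP near its KM, 1 h reaction at ambient temperature, AlphaScreen chemiluminescence with streptavidin donor and anti-phosphotyrosine acceptor beads, 10-point inhibitor titration.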 It counts as biochemical.
Chain of c-Kit kinase (P10721 26-976): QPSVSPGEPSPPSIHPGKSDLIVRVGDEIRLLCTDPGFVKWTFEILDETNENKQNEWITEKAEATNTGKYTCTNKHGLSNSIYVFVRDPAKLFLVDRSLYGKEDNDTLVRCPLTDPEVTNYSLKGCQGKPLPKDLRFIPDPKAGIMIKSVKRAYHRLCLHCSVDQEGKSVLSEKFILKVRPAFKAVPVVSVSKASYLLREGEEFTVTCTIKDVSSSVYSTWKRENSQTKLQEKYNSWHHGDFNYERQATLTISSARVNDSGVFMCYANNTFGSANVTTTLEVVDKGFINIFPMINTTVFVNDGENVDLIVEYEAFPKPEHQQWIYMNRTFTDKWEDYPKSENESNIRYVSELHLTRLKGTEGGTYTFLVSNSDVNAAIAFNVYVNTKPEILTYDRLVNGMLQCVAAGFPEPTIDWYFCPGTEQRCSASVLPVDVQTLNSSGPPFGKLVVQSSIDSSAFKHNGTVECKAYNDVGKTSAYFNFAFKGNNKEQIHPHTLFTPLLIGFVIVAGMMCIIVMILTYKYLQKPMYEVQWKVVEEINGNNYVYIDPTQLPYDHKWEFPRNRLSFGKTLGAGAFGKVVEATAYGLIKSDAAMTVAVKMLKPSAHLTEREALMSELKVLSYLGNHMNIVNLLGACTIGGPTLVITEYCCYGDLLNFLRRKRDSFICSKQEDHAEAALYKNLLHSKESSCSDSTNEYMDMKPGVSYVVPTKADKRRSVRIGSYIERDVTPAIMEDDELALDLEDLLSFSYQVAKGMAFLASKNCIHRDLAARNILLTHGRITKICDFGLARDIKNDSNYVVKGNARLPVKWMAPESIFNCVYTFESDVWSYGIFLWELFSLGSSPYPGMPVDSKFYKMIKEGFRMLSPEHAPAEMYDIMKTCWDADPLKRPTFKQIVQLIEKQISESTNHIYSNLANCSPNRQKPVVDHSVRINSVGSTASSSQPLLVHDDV
For assay [1], the target named is T1, Flt-3 (baculovirus expressed human Flt-3 kinase domain R571-S993) (Homo sapiens, UniProt P36888).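 Note: Luciferase-coupled chemiluminescent kinase assay, activity read as percent ATP left after a 3 h reaction at room temperature, ATP near KM, 10-point dose-response.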
T1 construct: human Flt-3 kinase domain R571-S993; host or cells: baculovirus expression
T1 sequence (P36888 571-993): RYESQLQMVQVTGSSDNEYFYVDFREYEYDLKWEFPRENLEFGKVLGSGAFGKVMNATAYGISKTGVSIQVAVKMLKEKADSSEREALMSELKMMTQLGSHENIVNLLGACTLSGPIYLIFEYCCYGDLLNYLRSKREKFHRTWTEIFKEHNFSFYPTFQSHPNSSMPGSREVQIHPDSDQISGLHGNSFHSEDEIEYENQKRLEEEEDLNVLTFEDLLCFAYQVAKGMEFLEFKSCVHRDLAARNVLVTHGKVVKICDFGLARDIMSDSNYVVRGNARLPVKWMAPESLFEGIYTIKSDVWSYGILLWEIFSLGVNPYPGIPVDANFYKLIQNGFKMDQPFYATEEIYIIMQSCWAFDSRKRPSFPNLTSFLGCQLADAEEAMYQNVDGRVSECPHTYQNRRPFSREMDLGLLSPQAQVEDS
The assay is described as follows: biochemical. As to conditions: read-out: flt3 IC50.

Assay [2] deals with T2, c-Met (baculovirus expressed human c-Met kinase domain P948-S1343) (Homo sapiens, UniProt P08581).
T2 construct: human c-Met kinase domain P948-S1343; host or cells: baculovirus expression
T2 sequence (P08581 1011-1343 limits assumed): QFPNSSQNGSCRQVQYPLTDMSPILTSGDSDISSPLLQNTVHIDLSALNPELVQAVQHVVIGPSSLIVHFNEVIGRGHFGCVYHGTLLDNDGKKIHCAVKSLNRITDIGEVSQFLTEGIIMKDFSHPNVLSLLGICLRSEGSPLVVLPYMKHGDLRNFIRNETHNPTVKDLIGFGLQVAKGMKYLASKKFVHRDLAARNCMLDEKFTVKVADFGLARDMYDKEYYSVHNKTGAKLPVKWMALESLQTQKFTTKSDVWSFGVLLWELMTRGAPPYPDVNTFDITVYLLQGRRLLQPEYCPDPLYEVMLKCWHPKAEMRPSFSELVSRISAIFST
The assay can be described thus: c-Met Luciferase-Coupled Chemiluminescent Kinase assay (LCCA).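 Note: kinase activity read as percent ATP left after reaction, by luciferase-luciferin chemiluminescence, with 1 µM ATP and 1 µM poly-EY substrate, 2 h at ambient temperature, 10-point dose-response.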 Format: biochemical.
Method: Kinase activity and compound inhibition are investigated using one or more of the three assay formats described below. The ATP concentrations for each assay are selected to be close to the Michaelis-Menten constant (KM) for each individual kinase. Dose-response experiments are performed at 10 different inhibitor concentrations in a 384-well plate format. […] Typically H is close to unity. c-Met Assay
c-Met biochemical activity was assessed using a Luciferase-Coupled Chemiluminescent Kinase assay (LCCA) format as described above. Again, kinase activity was measured as the percent ATP remaining following the kinase reaction. Remaining ATP was detected by luciferase-luciferin-coupled chemiluminescence. Specifically, the reaction was initiated by mixing test compounds, 1 μM ATP, 1 μM poly-EY and 10 nM c-Met (baculovirus expressed human c-Met kinase domain P948-S1343) in a 20 uL assay buffer (20 mM Tris-HCL pH7.5, 10 mM MgCl2, 0.02% Triton X-100, 100 mM DTT, 2 mM MnCu2). The mixture is incubated at ambient temperature for 2 hours after which 20 uL luciferase-luciferin mix is added and the chemiluminescent signal read using a Wallac Victor^2 reader.

Assay [3] addresses T3, Flt-4 (baculovirus expressed human Flt-4 kinase domain D725-R1298) (Homo sapiens, UniProt P35916).
T3 construct: human Flt-4 kinase domain D725-R1298; host or cells: baculovirus expression
The assay is described as follows: flt-4 Alphascreen Tyrosine Kinase assay.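 Note: AlphaScreen chemiluminescence read-out of biotinylated poly(Glu,Tyr) 4:1 phosphorylation via streptavidin donor and PY100 anti-phosphotyrosine acceptor beads, ATP near KM, 1 hr kinase reaction, 10-point dose-response.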 It counts as biochemical. As to conditions: read-out: flt4 IC50.

The target in assay [4] is T4, KDR (baculovirus expressed human KDR kinase domain D807-V1356) (Homo sapiens, UniProt P35968).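 Note: Luciferase-coupled chemiluminescent kinase assay, activity read as percent ATP left after 4 h reaction at ambient temperature, ATP near KM, 10-point dose-response in 384-well plates.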
T4 construct: human KDR kinase domain D807-V1356; host or cells: baculovirus expression
T4 sequence (P35968 807-1356): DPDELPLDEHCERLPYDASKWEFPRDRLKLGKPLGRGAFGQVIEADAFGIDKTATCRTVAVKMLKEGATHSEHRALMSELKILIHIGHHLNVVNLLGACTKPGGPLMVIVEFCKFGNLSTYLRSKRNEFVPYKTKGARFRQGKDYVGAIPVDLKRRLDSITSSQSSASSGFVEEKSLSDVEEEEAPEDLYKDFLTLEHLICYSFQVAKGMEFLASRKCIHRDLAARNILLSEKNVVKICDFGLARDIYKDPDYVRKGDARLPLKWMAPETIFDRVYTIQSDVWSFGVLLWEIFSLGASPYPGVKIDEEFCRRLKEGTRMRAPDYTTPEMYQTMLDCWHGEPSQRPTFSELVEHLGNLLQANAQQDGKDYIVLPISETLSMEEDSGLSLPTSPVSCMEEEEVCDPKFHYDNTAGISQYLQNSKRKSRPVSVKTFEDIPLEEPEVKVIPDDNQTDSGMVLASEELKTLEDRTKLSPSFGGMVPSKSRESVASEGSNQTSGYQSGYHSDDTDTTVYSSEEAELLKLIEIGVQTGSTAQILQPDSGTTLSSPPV
The assay is described as follows: biochemical.

Setting [5] is: Table 4, inhibition as IC50 class.

Where two headings read alike, the source gives them in different places. Where only a bound is given, the exact number is not on record here.

T3 sequence (P35916 725-1298 isoform P35916-1): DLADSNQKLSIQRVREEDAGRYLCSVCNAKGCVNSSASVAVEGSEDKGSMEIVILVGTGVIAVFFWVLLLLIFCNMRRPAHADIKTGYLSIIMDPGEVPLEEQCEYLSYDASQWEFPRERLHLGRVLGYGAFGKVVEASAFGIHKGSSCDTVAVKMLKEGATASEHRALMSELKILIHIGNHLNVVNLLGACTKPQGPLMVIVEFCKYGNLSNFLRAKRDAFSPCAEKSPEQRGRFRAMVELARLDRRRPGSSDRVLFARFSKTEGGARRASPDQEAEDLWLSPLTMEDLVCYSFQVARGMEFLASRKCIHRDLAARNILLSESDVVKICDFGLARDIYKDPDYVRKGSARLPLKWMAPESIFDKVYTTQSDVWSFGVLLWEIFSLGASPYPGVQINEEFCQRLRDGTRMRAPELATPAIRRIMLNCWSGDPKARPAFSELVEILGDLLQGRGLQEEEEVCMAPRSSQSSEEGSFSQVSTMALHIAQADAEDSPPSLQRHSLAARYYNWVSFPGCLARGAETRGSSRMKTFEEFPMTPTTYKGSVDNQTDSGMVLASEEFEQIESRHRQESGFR

For `COc1cc2c(Oc3ccc(NC(=O)C(=O)Nc4cccc(F)c4)cc3F)ccnc2cc1OCC1CCNCC1` [Example 260, N-[3-fluoro-4-({6-(methyloxy)-7-[(piperidin-4-ylmethyl)oxy]quinolin-4-yl}oxy)phenyl]-N′-(3-fluorophenyl)ethanediamide], the IC50 at c-Kit kinase (setting [5]) was 0.05 to 0.5 µM; in assay [1] (setting [5]) it was 0.5 to 5 µM; in assay [2] (setting [5]), less than 0.05 µM; in assay [3] (setting [5]), 0.5 to 5 µM; in assay [4] (setting [5]), 0.5 to 5 µM.
For `COc1cc2c(Oc3ccc(NC(=O)C(=O)N4CCCC4)cc3F)ccnc2cc1OCC1CCNCC1` [Example 299, N-[3-fluoro-4-({6-(methyloxy)-7-[(piperidin-4-ylmethyl)oxy]quinolin-4-yl}oxy)phenyl]-2-oxo-2-pyrrolidin-1-ylacetamide], the IC50 on c-Kit kinase is 0.05 to 0.5 µM; in assay [1], 0.05 to 0.5 µM; in assay [2] it was less than 0.05 µM; in assay [3], 0.05 to 0.5 µM; in assay [4], 0.05 to 0.5 µM.
Take `CCCCc1ccc(CNC(=O)C(=O)Nc2ccc(Oc3ccnc4cc(OCC5CCNCC5)c(OC)cc34)c(F)c2)cc1` [Example 270, N-[(4-butylphenyl)methyl]-N′-[3-fluoro-4-({6-(methyloxy)-7-[(piperidin-4-ylmethyl)oxy]quinolin-4-yl}oxy)phenyl]ethanediamide]: the IC50 against c-Kit kinase (setting [5]) is 0.05 to 0.5 µM; in assay [1] (setting [5]), 0.05 to 0.5 µM; in assay [2] (setting [5]) it was less than 0.05 µM; in assay [3] (setting [5]), 0.05 to 0.5 µM; in assay [4] (setting [5]), 0.05 to 0.5 µM.
For `COc1cc2c(Oc3ccc(NC(=O)C(=O)NCCc4ccc(C)cc4)cc3F)ccnc2cc1OCC1CCNCC1` [Example 271, N-[3-fluoro-4-({6-(methyloxy)-7-[(piperidin-4-ylmethyl)oxy]quinolin-4-yl}oxy)phenyl]-N′-[2-(4-methylphenyl)ethyl]ethanediamide], the IC50 on c-Kit kinase (setting [5]) was 0.05 to 0.5 µM; in assay [1] (setting [5]), less than 0.05 µM; in assay [2] (setting [5]), less than 0.05 µM; in assay [3] (setting [5]), 0.05 to 0.5 µM; in assay [4] (setting [5]), 0.05 to 0.5 µM.
`COc1cc2nccc(Oc3ccc(N4CC(Cc5ccccc5)N(S(=O)(=O)c5ccc(C)cc5)C4=O)cc3)c2cc1OC` (stereo not drawn) [Example 112, 1-(4-{[6,7-bis(methyloxy)quinolin-4-yl]oxy}phenyl)-3-[(4-methylphenyl)sulfonyl]-4-(phenylmethyl)imidazolidin-2-one]: the IC50 on c-Kit kinase was 0.05 to 0.5 µM; in assay [1] it was 0.5 to 5 µM; in assay [2], 0.05 to 0.5 µM; in assay [3], 0.5 to 5 µM; in assay [4], 0.5 to 5 µM.
On to `COc1cc2c(Oc3ccc(NC(=O)C(=O)NCCc4ccccc4)cc3F)ncnc2cc1OCC1CCNCC1` [Example 275, N-[3-fluoro-4-({6-(methyloxy)-7-[(piperidin-4-ylmethyl)oxy]quinazolin-4-yl}oxy)phenyl]-N′-(2-phenylethyl)ethanediamide], for which the IC50 (at c-Kit kinase (setting [5]); in assay [1] (setting [5]); in assay [2] (setting [5]); in assay [3] (setting [5]); in assay [4] (setting [5])) was less than 0.05 µM in each case.
`COc1cc2nccc(Oc3c(F)cc(NC(=O)C4(C(=O)Nc5ccc(F)cc5)CC4)cc3F)c2cc1OC` [Example 323, N-(4-{[6,7-bis(methyloxy)quinolin-4-yl]oxy}-3,5-difluorophenyl)-N′-(4-fluorophenyl)cyclopropane-1,1-dicarboxamide]: the IC50 was 0.05 to 0.5 µM against c-Kit kinase; less than 0.05 µM in assay [1]; less than 0.05 µM in assay [2]; less than 0.05 µM in assay [3]; less than 0.05 µM in assay [4].
On to `COc1cc2ncnc(Oc3ccc(NC(=O)C4(C(=O)Nc5ccc(F)cc5)CC4)cc3)c2cc1OC` [Example 310, N-(4-{[6,7-bis(methyloxy)quinazolin-4-yl]oxy}phenyl)-N′-(4-fluorophenyl)cyclopropane-1,1-dicarboxamide], for which the IC50 (at c-Kit kinase; in assay [1]; in assay [2]; in assay [3]; in assay [4]) was less than 0.05 µM in each case.
On to `COc1cc2nccc(Oc3cc(F)c(NC(=O)C4(C(=O)Nc5ccc(F)cc5)CC4)cc3F)c2cc1OC` [Example 324, N-(4-{[6,7-bis(methyloxy)quinolin-4-yl]oxy}-2,5-difluorophenyl)-N′-(4-fluorophenyl)cyclopropane-1,1-dicarboxamide], for which the IC50 (at c-Kit kinase; in assay [1]; in assay [2]; in assay [3]; in assay [4]) was less than 0.05 µM in each case.
Take `CCN(CC)CCOc1cc2nccc(Oc3ccc(NC(=O)C4(C(=O)Nc5ccc(F)cc5)CC4)cc3F)c2cc1OC` [Example 304, N-(4-{[7-{[2-(diethylamino)ethyl]oxy}-6-(methyloxy)quinolin-4-yl]oxy}-3-fluorophenyl)-N′-(4-fluorophenyl)cyclopropane-1,1-dicarboxamide]: the IC50 (at c-Kit kinase; in assay [1]; in assay [2]; in assay [3]; in assay [4]) was less than 0.05 µM throughout.
Regarding `COc1cc2c(Oc3cc(C)c(NC(=O)C4(C(=O)Nc5ccc(F)cc5)CC4)cc3F)ccnc2cc1OCCCN1CCOCC1` [Example 326, N-[5-fluoro-2-methyl-4-({6-(methyloxy)-7-[(3-morpholin-4-ylpropyl)oxy]quinolin-4-yl}oxy)phenyl]-N′-(4-fluorophenyl)cyclopropane-1,1-dicarboxamide], the IC50 at c-Kit kinase is 0.05 to 0.5 µM; in assay [1] it was 0.05 to 0.5 µM; in assay [2] it was less than 0.05 µM; in assay [3], 0.05 to 0.5 µM; in assay [4] it was less than 0.05 µM.
Consider `COc1cc2nccc(Oc3cc(C)c(NC(=O)C4(C(=O)Nc5ccc(F)cc5)CC4)cc3F)c2cc1OC` [Example 328, N-(4-{[6,7-bis(methyloxy)quinolin-4-yl]oxy}-5-fluoro-2-methylphenyl)-N′-(4-fluorophenyl)cyclopropane-1,1-dicarboxamide], for which the IC50 against c-Kit kinase is 0.05 to 0.5 µM; in assay [1] it was 0.5 to 5 µM; in assay [2], less than 0.05 µM; in assay [3] it was 0.5 to 5 µM; in assay [4], 0.05 to 0.5 µM.
Regarding `COc1cc2c(Oc3ccc(NC(=O)C4(C(=O)Nc5ccc(F)cc5)CC4)cc3F)ccnc2cc1OCCCN1CCNCC1` [Example 332, N-[3-fluoro-4-({6-(methyloxy)-7-[(3-piperazin-1-ylpropyl)oxy]quinolin-4-yl}oxy)phenyl]-N′-(4-fluorophenyl)cyclopropane-1,1-dicarboxamide], the IC50 (on c-Kit kinase; in assay [1]; in assay [2]; in assay [3]; in assay [4]) was less than 0.05 µM throughout.
As for `COc1cc2nccc(Oc3ncc(NC(=O)C4(C(=O)NCc5ccccc5)CC4)cc3Cl)c2cc1OC` [Example 301, N-(6-{[6,7-bis(methyloxy)quinolin-4-yl]oxy}-5-chloropyridin-3-yl)-N′-(phenylmethyl)cyclopropane-1,1-dicarboxamide], the IC50 against c-Kit kinase was 0.05 to 0.5 µM; in assay [1] it was 0.05 to 0.5 µM; in assay [2], less than 0.05 µM; in assay [3], 0.05 to 0.5 µM; in assay [4], 0.5 to 5 µM.
For `COc1cc2c(Oc3ccc(NC(=O)C(=O)NCCc4ccccc4)cc3F)ncnc2cc1OCC1CCN(C)CC1` [Example 276, N-{3-fluoro-4-[(6-(methyloxy)-7-{[(1-methylpiperidin-4-yl)methyl]oxy}quinazolin-4-yl)oxy]phenyl}-N′-(2-phenylethyl)ethanediamide], the IC50 (against c-Kit kinase (setting [5]); in assay [1] (setting [5]); in assay [2] (setting [5]); in assay [3] (setting [5]); in assay [4] (setting [5])) was less than 0.05 µM in each case.
Regarding `COc1cc2c(Oc3ccc(NC(=O)C(=O)NCCc4ccc(Br)cc4)cc3F)ccnc2cc1OCC1CCNCC1` [Example 230, N-[2-(4-bromophenyl)ethyl]-N′-[3-fluoro-4-({6-(methyloxy)-7-[(piperidin-4-ylmethyl)oxy]quinolin-4-yl}oxy)phenyl]ethanediamide], the IC50 against c-Kit kinase (setting [5]) is 0.05 to 0.5 µM; in assay [1] (setting [5]), 0.05 to 0.5 µM; in assay [2] (setting [5]), less than 0.05 µM; in assay [3] (setting [5]) it was 0.05 to 0.5 µM; in assay [4] (setting [5]) it was less than 0.05 µM.
Regarding `COc1cc2c(Oc3ccc(NC(=O)C4(C(=O)Nc5ccc(F)cc5)CC4)cc3)ccnc2cc1OCCCN1CCOCC1` [Example 335, N-(4-fluorophenyl)-N′-[4-({6-(methyloxy)-7-[(3-morpholin-4-ylpropyl)oxy]quinolin-4-yl}oxy)phenyl]cyclopropane-1,1-dicarboxamide], the IC50 (against c-Kit kinase; in assay [1]; in assay [3]; in assay [4]) was less than 0.05 µM throughout.
